We go through five compounds from patent US5658924A, “1,8-naphthyridin-2-one derivative and use thereof” (The Green Cross Corporation, priority 1995, dated 1997).

Each structure is given as a SMILES string.

The subject of one series is PDE isozyme IV. Description: Inhibition of PDE (isozyme IV). The class given is biochemical. To be noted: pig ventricular muscle, [3H]-cAMP substrate; read-out: PDE Inhibitory activity (IC5 :μM), PDE isozyme IV. As to the method: (§1) Inhibition of PDE by 1,8-naphthyridin-2-one derivative
(§2) The centrifugation supernatant of the homogenate of pig ventricular muscle was separated into isozyme by ortho-(diethylaminoethyl)-cellulose chromatography and used as an enzyme source. Respective isozymes were confirmed by the reaction with respective activity regulators. [^3 H]-cAMP was used as a substrate and the reaction was carried out in the presence of 5'-nucleotidase. A sample was dissolved in dimethyl sulfoxide and added to the reaction mixture. [^3 H]-5'-AMP produced by PDE was decomposed into [^3 H]-adenosine by 5'-nucleotidase. An anion exchange resin was added to adsorb the unreacted [^3 H]-cAMP, whereby the reaction was stopped. The [^3 H]-adenosine radioactivity of the supernatant was determined, based on which the PDE inhibitory action was calculated.

A further series addresses T1, PDE isozyme II (Sus scrofa, UniProt F1SUV3).
T1 construct: centrifugation supernatant of the homogenate of pig ventricular muscle; from tissue; host or cells: pig ventricular muscle, supernatant of homogenate, DEAE-cellulose fraction
T1 sequence (F1SUV3 1-945): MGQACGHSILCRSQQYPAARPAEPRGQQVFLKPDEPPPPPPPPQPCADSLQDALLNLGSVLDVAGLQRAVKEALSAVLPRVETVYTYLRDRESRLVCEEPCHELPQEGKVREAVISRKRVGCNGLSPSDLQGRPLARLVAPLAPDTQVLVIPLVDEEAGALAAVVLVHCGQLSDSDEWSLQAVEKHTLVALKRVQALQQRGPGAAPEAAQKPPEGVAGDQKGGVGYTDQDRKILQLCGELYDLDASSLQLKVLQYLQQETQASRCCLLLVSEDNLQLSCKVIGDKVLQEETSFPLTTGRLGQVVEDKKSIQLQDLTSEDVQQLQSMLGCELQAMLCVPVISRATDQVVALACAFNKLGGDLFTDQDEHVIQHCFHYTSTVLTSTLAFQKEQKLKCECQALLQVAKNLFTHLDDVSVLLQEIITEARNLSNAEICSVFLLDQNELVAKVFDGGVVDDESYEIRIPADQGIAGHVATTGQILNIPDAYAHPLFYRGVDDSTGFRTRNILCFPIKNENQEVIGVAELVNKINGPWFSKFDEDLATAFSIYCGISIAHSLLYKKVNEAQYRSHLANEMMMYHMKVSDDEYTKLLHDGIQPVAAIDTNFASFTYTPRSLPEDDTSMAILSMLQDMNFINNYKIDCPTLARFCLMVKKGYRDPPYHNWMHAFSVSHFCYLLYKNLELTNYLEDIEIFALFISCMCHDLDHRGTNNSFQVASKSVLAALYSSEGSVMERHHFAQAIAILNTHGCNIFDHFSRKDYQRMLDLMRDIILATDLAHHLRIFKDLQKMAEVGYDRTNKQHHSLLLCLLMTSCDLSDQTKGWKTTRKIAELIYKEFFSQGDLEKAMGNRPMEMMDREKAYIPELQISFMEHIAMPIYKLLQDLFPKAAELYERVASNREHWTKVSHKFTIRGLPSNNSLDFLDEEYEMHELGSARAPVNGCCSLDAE
The series is described as follows: Inhibition of PDE (isozyme II). The format is biochemical. To be noted: pig ventricular muscle, [3H]-cAMP substrate; read-out: PDE Inhibitory activity (IC5 :μM), PDE isozyme II. As to the method: as §1, §2

The subject of a further series is PDE isozyme I. Description: Inhibition of PDE (isozyme I). The class given is biochemical. Particulars: pig ventricular muscle, [3H]-cAMP substrate; read-out: PDE Inhibitory activity (IC5 :μM), PDE isozyme I. How it is done: as §1, §2
The next series deals with T2, PDE isozyme III (Sus scrofa, UniProt I3L6S5).
T2 construct: centrifugation supernatant of the homogenate of pig ventricular muscle; from tissue; host or cells: pig ventricular muscle, supernatant of homogenate, DEAE-cellulose fraction
T2 sequence (I3L6S5 1-1145): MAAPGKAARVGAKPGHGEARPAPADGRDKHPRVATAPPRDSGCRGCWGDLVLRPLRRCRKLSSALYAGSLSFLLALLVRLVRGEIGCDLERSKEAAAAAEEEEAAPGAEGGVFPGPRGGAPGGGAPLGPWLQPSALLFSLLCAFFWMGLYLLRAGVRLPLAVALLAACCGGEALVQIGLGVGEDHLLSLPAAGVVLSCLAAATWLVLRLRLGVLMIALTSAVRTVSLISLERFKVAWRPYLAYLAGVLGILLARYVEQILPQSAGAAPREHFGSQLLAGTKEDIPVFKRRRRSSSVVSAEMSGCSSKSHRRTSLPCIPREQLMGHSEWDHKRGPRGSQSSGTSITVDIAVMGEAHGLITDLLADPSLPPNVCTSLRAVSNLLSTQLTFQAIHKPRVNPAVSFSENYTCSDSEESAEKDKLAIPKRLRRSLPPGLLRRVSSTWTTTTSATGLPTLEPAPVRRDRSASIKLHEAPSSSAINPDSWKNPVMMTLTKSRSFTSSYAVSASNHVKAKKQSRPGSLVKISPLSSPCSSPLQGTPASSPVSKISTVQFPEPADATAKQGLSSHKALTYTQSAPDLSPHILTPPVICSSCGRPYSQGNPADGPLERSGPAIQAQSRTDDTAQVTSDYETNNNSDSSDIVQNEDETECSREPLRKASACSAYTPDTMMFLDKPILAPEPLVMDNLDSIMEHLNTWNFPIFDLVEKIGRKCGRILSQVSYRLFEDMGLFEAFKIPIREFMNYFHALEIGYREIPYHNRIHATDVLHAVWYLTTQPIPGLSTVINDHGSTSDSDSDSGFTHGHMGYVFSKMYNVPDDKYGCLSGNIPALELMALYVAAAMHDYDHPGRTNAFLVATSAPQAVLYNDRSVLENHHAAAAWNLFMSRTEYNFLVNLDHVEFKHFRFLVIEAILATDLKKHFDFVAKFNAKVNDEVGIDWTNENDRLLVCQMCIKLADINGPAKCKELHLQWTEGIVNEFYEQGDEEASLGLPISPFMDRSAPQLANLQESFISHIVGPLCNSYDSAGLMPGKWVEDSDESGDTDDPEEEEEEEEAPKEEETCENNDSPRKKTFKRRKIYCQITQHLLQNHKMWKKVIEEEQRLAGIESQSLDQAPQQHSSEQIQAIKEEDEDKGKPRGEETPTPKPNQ
Description: Inhibition of PDE (isozyme III). The class given is biochemical. To be noted: pig ventricular muscle, [3H]-cAMP substrate; read-out: PDE Inhibitory activity (IC5 :μM), PDE isozyme III. As to the method:
as §1, §2

For series [1], the system named is histamine-induced contraction of bronchial specimen. The series is described as follows: Suppression of histamine-induced contraction of bronchial specimen extracted from guinea pig. More on the design: species or system guinea pig (male Hartley). Particulars: histamine 3 μM. As to the method: (§3) Suppression of histamine or leukotriene D4 -induced contraction of bronchial specimen extracted from guinea pig
(§4) Male Hartley guinea pigs weighing 250-450 g were fainted by hitting in the head and exsanguinated to death. The trachea was removed and ring specimens were prepared by a conventional method. The specimens were kept at 37° C. and suspended in a Krebs-Ringer solution (10 ml) aerated with a 95% O2 -5% CO2 mixed gas, and isometric tension was measured. The specimens were contracted with histamine (3 μM) or leukotriene D4 (1 nM). When the reaction became stable, a drug dissolved in dimethyl sulfoxide was added to the Kreb's Ringer solution. The relaxation ratio was calculated based on the base line before the contraction, which was taken as 100% relaxation.

Series [2] concerns leukotriene D4-induced contraction of bronchial specimen. The series is described as follows: Suppression of leukotriene D4-induced contraction of bronchial specimen extracted from guinea pig. More on the design: species or system guinea pig (male Hartley). Particulars: leukotriene D4 1 nM. As to the method: as §3, §4
A further series can be described thus: Acute toxicity in mice. The class given is in vivo, mice (ICR). Particulars: mouse, in vivo, po, mice; estimated; read-out: oral lethal dose 50% (LD50). How it is done:
(§5) Acute toxicity of 1,8-naphthyridin-2-one derivative in mice
(§6) ICR mice (6-8 weeks of age, 7 per group) were fasted overnight and used for the experiment. A solvent (0.5% aqueous solution of carboxymethylcellulose) or a medium, in which a drug had been dissolved or suspended, was orally administered to mice in a dose of 0.1 ml/10 g body weight, and life or death of the animals was monitored for 72 hours after the administration. The representative test results of Compound 2 (300 mg/kg p.o.) are shown.

The test system of the next series is mice. The series is described as follows: Acute toxicity in mice. The format is in vivo, mice (ICR). Particulars: 300 mg/kg p.o., 72 hours. How it is done: as §5, §6
In series [3] the test system is endothelin. Description: Prevention of lethal effect on mice induced by intravenous administration of endothelin. The format is in vivo, mice (male ICR). How it is done: Prevention of lethal effect on mice induced by intravenous administration of endothelin
Male ICR mice (6-7 weeks of age) were used without anesthetization. A solvent (physiological saline or 0.5% carboxymethylcellulose in physiological saline) or a medium, in which a drug had been dissolved or suspended, was administered in a dose of 50 μl /10 g body weight via the tail vein of the mice. Five minutes later, 5 nmol/kg of endothelin (Peptide Institute) dissolved in the same amount of a solvent was intravenously administered. The mice were monitored for 60 minutes after the endothelin administration and the number of dead animals and the latency (seconds) until death were determined. […] The test results of Compound 2 are representatively shown.

Series [4] relates to endothelin. Description: Effect against endothelin-induced pressor activity in rats. The class given is in vivo, rats (male SD). Particulars: 10 mg/kg i.v., 10 min after endothelin 1 nmol/kg; blood pressure 20 min after endothelin. As to the method: Effect against endothelin-induced pressor activity in rats
Male SD rats (6 to 8 weeks of age) were anesthetized with sodium pentobarbital (60 mg/kg, i.p.), and a polyethylene catheter was inserted in the left carotid artery, which was connected to a pressure transducer (TP-400T, manufactured by Nihon Koden), and the blood pressure was measured via a polygraph (RM-6000 manufactured by Nihon Koden).
The pressor activity was induced by administering endothelin (1 nmol/kg) dissolved in a solvent, from the femoral vein. With regard to the animals ascertained to have increased blood pressure, a solvent or a medium, in which a drug had been dissolved or suspended, was administered in a dose of 1 ml/kg from the femoral vein of the rats 10 minutes after the endothelin administration, and the pressor activity was observed thereafter. The representative test results of Compound 2 are shown.
The results are shown in Table 14. in the Table, changes in blood pressure 20 minutes after the endothelin administration was compared with the value obtained before the endothelin administration.

Series [5] concerns endothelin-induced contraction of extracted pig coronary artery. Description: Suppression of endothelin-induced contraction in extracted pig coronary artery. To be noted: 10 μM. As to the method: Suppression of endothelin-induced contraction in extracted pig coronary artery
Rectangular specimens of pig left anterior descendens coronary artery (endothelial cells removed) were used. The specimens were heated to 37° C. and suspended in a Tyrode's solution (10 ml) aerated with a 95% O2 -5% CO2 mixed gas under the resting tension of 1.5 g, and changes in isometric tension were determined. The specimens were contracted with 10 nM endothelin and when the reaction became stable, a drug dissolved in dimethyl sulfoxide was added to the. Tyrode's solution. The relaxation ratio was calculated relative to the base line before the contraction, which was taken as 100% relaxation. The representative test results of Compound 2 (administration concentration: 10 μM) are shown.

`O=c1c(-c2ccccn2)cc2cccnc2n1CC1CC1` [Compound 3]: the IC50 with PDE isozyme IV is 1.4 µM; on PDE isozyme II, 18 µM; in the series on PDE isozyme I it was 66 µM; on PDE isozyme III, 80 µM. The “Suppression of contraction % (HS)” value in series [1] (1 μM) is 60%. The “Suppression of contraction % (LT)” value in series [2] (1 μM) amounted to 100%.

Turning to `CC(C)CCn1c(=O)c(-c2ccc(Cl)cc2)cc2cccnc21` [Compound 5], the IC50 in the series on PDE isozyme IV was 0.35 µM; at PDE isozyme II, over 50 µM; in the series with PDE isozyme I, over 50 µM; at PDE isozyme III, over 50 µM.

Consider `Cc1ccccc1-c1cc2cccnc2n(Cc2ccccc2F)c1=O` [Compound 1, 1-(2-fluorobenzyl)-3-(2-methylphenyl)-1,8-naphthyridin-2(1H)-one], for which the IC50 in the series with PDE isozyme IV is 0.4 µM; on PDE isozyme II, over 50 µM; in the series on PDE isozyme I it was over 50 µM; at PDE isozyme III, over 50 µM. Besides, the “Suppression of contraction % (HS)” value in [1] (10 μM) came to 100%. The “Suppression of contraction % (LT)” value in series [2] (10 μM) is on record as 88%.

On to `C=CCn1c(=O)c(-c2ccc(OC)cc2)cc2cccnc21` [Compound 4], for which the IC50 with PDE isozyme IV is 0.38 µM; at PDE isozyme II it was over 50 µM; in the series on PDE isozyme I it was 49 µM; on PDE isozyme III, 44 µM. The “Suppression of contraction % (HS)” value in series [1] (10 μM) is reported as 100%. For the same compound, the “Suppression of contraction % (LT)” value in series [2] (10 μM) was 100%.

Usually LD50 stands for the dose at which mortality reaches 50%. Take `Cn1c(=O)c(-c2ccccc2)cc2cccnc21` [Compound 2]: the LD50 at 72 h in “Acute toxicity in mice” was at least 300 mg/kg. The “Death (number of animals)” value in the series with mice (7 animals administered) is recorded as 0. The “acute toxicity test result” value with mice is recorded as “tested negative in the acute toxicity test”. Moreover, the “Prevention of death: suppression of death (%)” value in the series with endothelin [3] (30 mg/kg i.v., 5 min before endothelin 5 nmol/kg i.v., 60 min monitoring) was determined as 52%. Besides, in the series on endothelin [3] (30 mg/kg i.v., 5 min before endothelin 5 nmol/kg i.v., ** P<0.01 relative to control, Tukey), the “Prevention of death: prolongation of latency (%)” value turned out to be 305%. In the series with endothelin [3] (i.v.), the “suppression of the death caused by endothelin and prolonging action of the latency until death” value is “showed suppression of the death caused by endothelin and a prolonging action of the latency until death”. Moreover, the “Endothelin-induced pressor activity, Suppression %” value in the series on endothelin [4] is 38.5%. Besides, the IC50 was 1.6 µM in the series with PDE isozyme IV, 39 µM on PDE isozyme II, 29 µM with PDE isozyme I and over 50 µM at PDE isozyme III. The “Suppression of contraction % (HS)” value in series [1] (10 μM) turned out to be 93%. The “suppressive action on the endothelin-induced contraction” value in series [5] was “showed evident suppressive action”. The “Suppression % of endothelin-induced contraction” value in series [5] (contracted with 10 nM endothelin, endothelial cells removed) is recorded as 74%.
